In patent publication US20240067651A1 (Biohaven Therapeutics Ltd., priority 2019, published 2024):

Columns and labels:
[1] = Stability in Simulated Gastric Fluid (SGF); format: in vitro ADME; parameters: key: % parent compound remaining relative to 0-minute sample
Procedure, shortened: (§1)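 Compound at 2 μg/mL final was incubated at 37° C with orbital shaking in SGF containing pepsin (pH 1.2) or SIF containing pancreatin (pH 6.8), sampled from 0 to 60 minutes. Parent remaining was measured by LC-MS/MS relative to the 0-minute sample; half-life came from ln(% remaining) versus time when enough points existed.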

[2] = Caco-2 Permeability Assay; format: in vitro ADME, human; conditions: human
Procedure, shortened: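 Caco-2 monolayers cultured 21 days (TEER >600 […]); test article at 10 μM in HBSS/HEPES pH 7.4 transport medium, dosed apical or basolateral, ±Pgp inhibitor. Incubated 90 min at 37 °C; both compartments quantified by LC-MS/MS. Papp (A→B, B→A), efflux ratio and % recovery calculated.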

[3] = Stability in Simulated Intestinal Fluid (SIF); format: in vitro ADME; parameters: key: % parent compound remaining relative to 0-minute sample
Procedure, shortened: as §1

Plasma Stability = format: in vitro ADME, human
Procedure, shortened: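 Compounds incubated at 1 μM in fresh human plasma for 1 hour at 37° C, then protein-precipitated with acetonitrile/formic acid containing internal standard. Remaining parent measured by LC-MS/MS in triplicate, expressed as percent of control remaining.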

[4] = Caco-2, pH 7.4, Caco-2 monolayer
[5] = bare number, unit or time not given
[6] = % remaining at 1 h, SGF with pepsin pH 1.2, 2 μg/mL, 37° C.
[7] = Caco-2, pH 7.4, donor 10 μM, 90 minutes, 37° C., direction not given
[8] = % remaining at 1 h, SIF with pancreatin pH 6.8, 2 μg/mL, 37° C.
[9] = % remaining at 1 h, human plasma, 1 μM, 37° C.
[10] = % @ 1 h (remaining) in simulated gastric fluid
[11] = % @ 1 h (remaining) in simulated intestinal fluid
[12] = % @ 1 h (remaining) in human plasma

Compound `CC(C)OCCn1c(=S)[nH]c(=O)c2c1ccn2COC(=O)CCNC(=O)[C@H](Cc1c[nH]c2ccccc12)NC(=O)OC(C)(C)C.O=C(O)C(F)(F)F` [Example 48] has an SGF ([1]; % remaining at 1 h in simulated gastric fluid) of 90% remaining, a Papp at 90 min, 10 µM [2, 4] of 5.93 ×10⁻⁶ cm/s and an SIF ([3]; % remaining at 1 h in simulated intestinal fluid) of 89% remaining. The “human Plasma stability” value (Plasma Stability; % remaining at 1 h in human plasma) was 74% remaining.

`CC(C)OCCn1c(=S)[nH]c(=O)c2c1ccn2COC(=O)CCCCOC(=O)[C@H](Cc1ccccc1)NC(=O)OC(C)(C)C` [Example 334, {4-oxo-1-[2-(propan-2-yloxy)ethyl]-2-sulfanylidene-1H,2H,3H,4H,5H-pyrrolo[3,2-d]pyrimidin-5-yl}methyl 5-{[(2S)-2-{[(tert-butoxy)carbonyl]amino}-3-phenylpropanoyl]oxy}pentanoate] showed an SGF [1, 5] of 90, a Papp at 90 min, 10 µM ([2]; Caco-2, pH 7.4) of 6.26 ×10⁻⁶ cm/s and an SIF [3, 5] of 2. The “human Plasma stability” value (Plasma Stability; % remaining @ 1 h) was 58% remaining.

With `CC(C)C[C@H](N)C(=O)OCn1c(=O)c2c(ccn2COC(=O)[C@@H](N)CC(C)C)n(CCOC(C)C)c1=S.O=C(O)C(F)(F)F.O=C(O)C(F)(F)F` [Example 322, bis(trifluoroacetic acid) [3-({[(2S)-2-amino-4-methylpentanoyl]oxy}methyl)-4-oxo-1-[2-(propan-2-yloxy)ethyl]-2-sulfanylidene-1H,2H,3H,4H,5H-pyrrolo[3,2-d]pyrimidin-5-yl]methyl (2S)-2-amino-4-methylpentanoate] the SGF ([1]; % remaining @ 1 h) was 56%@ 1 h, the Papp at 90 min, 10 µM ([2]; Caco-2, pH 7.4) was under 0.106 ×10⁻⁶ cm/s and the SIF ([3]; % remaining @ 1 h) was 61%@ 1 h. For the same compound, the “human Plasma stability” value (Plasma Stability; % remaining @ 1 h) was 64%@ 1 h.

With `CC(C)OCCn1c(=S)[nH]c(=O)c2c1ccn2COC(N)=O` [Example 181, Carbamic acid 1-(2-isopropoxy-ethyl)-4-oxo-2-thioxo-1,2,3,4-tetrahydro-pyrrolo[3,2-d]pyrimidin-5-ylmethyl ester] the SGF [1, 6] was 82%, the Papp at 90 min, 10 µM [2, 7] was 21.8 ×10⁻⁶ cm/s and the SIF [3, 8] was 97%. For the same compound, the “human Plasma stability” value (Plasma Stability; [9]) was 99%.

Compound `C=CCN(C)C(=O)OCSc1nc(=O)c2c(ccn2COC(=O)N(C)CC=C)n1CCOC(C)C.O=C(O)C(F)(F)F` [Example 178] has an SGF [1, 10] of 99% @ 1 h, a Papp at 90 min, 10 µM [2, 4] of 19.4 ×10⁻⁶ cm/s and an SIF [3, 11] of 75% @ 1 h. The “human Plasma stability” value (Plasma Stability; [12]) was 86% @ 1 h.

With `CC(C)OCCn1c(SCOC(=O)[C@@H](Cc2ccccc2)NC(=O)OC(C)(C)C)nc(=O)c2c1ccn2COC(=O)[C@@H](Cc1ccccc1)NC(=O)OC(C)(C)C` [Example 306, {[5-({[(2R)-2-{[(tert-butoxy)carbonyl]amino}-3-phenylpropanoyl]oxy}methyl)-4-oxo-1-[2-(propan-2-yloxy)ethyl]-1H,4H,5H-pyrrolo[3,2-d]pyrimidin-2-yl]sulfanyl}methyl (2R)-2-{[(tert-butoxy)carbonyl]amino}-3-phenylpropanoate] the SGF ([1]; % remaining @ 1 h) was 41% @ 1 h, the Papp at 90 min, 10 µM ([2]; Caco-2, pH 7.4) was 3.8 ×10⁻⁶ cm/s and the SIF ([3]; % remaining @ 1 h) was 1% @ 1 h. The “human Plasma stability” value (Plasma Stability; % remaining @ 1 h) was 72% @ 1 h.

In the case of `CC(C)OCCn1c(SC(C)OC(=O)N(C(C)C)C(C)C)nc(=O)c2[nH]ccc21` (stereo not shown) [Example 208, 1-({4-Oxo-1-[2-(propan-2-yloxy)ethyl]-1H,4H,5H-pyrrolo[3,2-d]pyrimidin-2-yl}sulfanyl)ethyl N,N-bis(propan-2-yl)carbamate], the SGF [1, 6] is reported as 1%, the Papp at 90 min, 10 µM [2, 7] is reported as 18.3 ×10⁻⁶ cm/s and the SIF [3, 8] is reported as 93%. The “human Plasma stability” value (Plasma Stability; [9]) was 98%.

For `C=CCCN(C)C(=O)OCSc1nc(=O)c2c(ccn2COC(=O)N(C)CCC=C)n1CCOC(C)C.O=C(O)C(F)(F)F` [Example 180], the SGF [1, 10] was 99% @ 1 h, the Papp at 90 min, 10 µM [2, 4] was 25.9 ×10⁻⁶ cm/s and the SIF [3, 11] was 82% @ 1 h. For the same compound, the “human Plasma stability” value (Plasma Stability; [12]) was 99% @ 1 h.

Compound `CCCCCOC(=O)OCSc1nc(=O)c2c(ccn2COC(=O)OCCCCC)n1CCOC(C)C` [Example 217] has an SGF ([1]; % remaining at 1 h in simulated gastric fluid, the 17th table) of 88% remaining, a Papp at 90 min, 10 µM ([2]; Caco-2, pH 7.4, Caco-2 monolayer, the 17th table) of 5.32 ×10⁻⁶ cm/s and an SIF ([3]; % remaining at 1 h in simulated intestinal fluid, the 17th table) of 1% remaining. The “human Plasma stability” value (Plasma Stability; % remaining at 1 h in human plasma, the 17th table) was 5% remaining.

Compound `CC(=O)OCn1ccc2c1c(=O)[nH]c(=S)n2CCOC(C)C` [Example 159] has an SGF [1, 10] of 79% @ 1 h, a Papp at 90 min, 10 µM [2, 4] of 8.42 ×10⁻⁶ cm/s and an SIF [3, 11] of 83% @ 1 h. For the same compound, the “human Plasma stability” value (Plasma Stability; [12]) was 0% @ 1 h.
